Measured values published in patent publication US9156858B2, “Boronic acid derivatives and therapeutic uses thereof” (priority 2012, dated 2015).
Where two headings read alike, the source gives them in different places.

Tests used:
[1] = tested on: KP1007 (OXA-10); assay: Tigemonam potentiation (MPC@4); assay type: cell-based; details: BLI concentration inhibiting growth with 4 μg/mL tigemonam; class D
[2] = tested on: EC1010 (CMY-6); assay: Tigemonam potentiation (MPC@4); assay type: cell-based; details: BLI concentration inhibiting growth with 4 μg/mL tigemonam; class C
[3] = tested on: ec308 (SHV-5); assay: Aztreonam potentiation (MPC@4); assay type: cell-based; details: BLI concentration inhibiting growth with 4 μg/mL aztreonam; class A
[4] = tested on: KP1005 (CTX-M-14); assay: Aztreonam potentiation (MPC@4); assay type: cell-based; details: BLI concentration inhibiting growth with 4 μg/mL aztreonam; class A
[5] = tested on: ec308 (SHV-5); assay: Tigemonam potentiation (MPC@4); assay type: cell-based; details: BLI concentration inhibiting growth with 4 μg/mL tigemonam; class A
[6] = tested on: KP1009 (CTX-M-15); assay: Aztreonam potentiation (MPC@4); assay type: cell-based; details: BLI concentration inhibiting growth with 4 μg/mL aztreonam; class A
[7] = tested on: KP1009 (CTX-M-15); assay: Tigemonam potentiation (MPC@4); assay type: cell-based; details: BLI concentration inhibiting growth with 4 μg/mL tigemonam; class A
[8] = tested on: ECL1002 (class C); assay: Tigemonam potentiation (MPC@4); assay type: cell-based; details: BLI concentration inhibiting growth with 4 μg/mL tigemonam
[9] = tested on: ec302 (TEM-10); assay: Tigemonam potentiation (MPC@4); assay type: cell-based; details: BLI concentration inhibiting growth with 4 μg/mL tigemonam; class A
[10] = tested on: EC1010 (CMY-6); assay: Aztreonam potentiation (MPC@4); assay type: cell-based; details: BLI concentration inhibiting growth with 4 μg/mL aztreonam; class C
[11] = tested on: KP1010 (SHV-12); assay: Tigemonam potentiation (MPC@4); assay type: cell-based; details: BLI concentration inhibiting growth with 4 μg/mL tigemonam; class A
[12] = target: CMY-2 (Klebsiella pneumoniae, UniProt Q48434); assay: biochemical
Chain of CMY-2 (Q48434 21-381): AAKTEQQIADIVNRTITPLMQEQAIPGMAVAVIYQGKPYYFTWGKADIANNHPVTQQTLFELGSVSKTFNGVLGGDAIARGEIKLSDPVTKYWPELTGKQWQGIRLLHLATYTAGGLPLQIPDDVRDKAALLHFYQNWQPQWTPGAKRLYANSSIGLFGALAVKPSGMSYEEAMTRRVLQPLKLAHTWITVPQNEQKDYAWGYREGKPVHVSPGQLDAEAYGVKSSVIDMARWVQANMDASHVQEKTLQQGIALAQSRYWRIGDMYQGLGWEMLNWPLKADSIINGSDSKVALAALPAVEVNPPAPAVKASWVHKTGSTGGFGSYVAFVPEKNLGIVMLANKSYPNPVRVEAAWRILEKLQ

[13] = tested on: KPX1001 (OXA-2); assay: Aztreonam potentiation (MPC@4); assay type: cell-based; details: BLI concentration inhibiting growth with 4 μg/mL aztreonam; class D
[14] = tested on: ec302 (TEM-10); assay: Aztreonam potentiation (MPC@4); assay type: cell-based; details: BLI concentration inhibiting growth with 4 μg/mL aztreonam; class A
[15] = tested on: ECL1002 (class C); assay: Aztreonam potentiation (MPC@4); assay type: cell-based; details: BLI concentration inhibiting growth with 4 μg/mL aztreonam
[16] = tested on: KP1004 (KPC-2); assay: Aztreonam potentiation (MPC@4); assay type: cell-based; details: BLI concentration inhibiting growth with 4 μg/mL aztreonam; class A
[17] = tested on: KP1010 (SHV-12); assay: Aztreonam potentiation (MPC@4); assay type: cell-based
[18] = target: CTX-M-14 (Escherichia coli, UniProt Q9L5C7); assay: Inhibition of nitrocefin cleavage by purified enzyme; assay type: biochemical; details: nitrocefin reporter substrate, 10 min preincubation, read-out: Ki (CTX-M-14, NCF)
Chain of CTX-M-14 (Q9L5C7 entry or part of it): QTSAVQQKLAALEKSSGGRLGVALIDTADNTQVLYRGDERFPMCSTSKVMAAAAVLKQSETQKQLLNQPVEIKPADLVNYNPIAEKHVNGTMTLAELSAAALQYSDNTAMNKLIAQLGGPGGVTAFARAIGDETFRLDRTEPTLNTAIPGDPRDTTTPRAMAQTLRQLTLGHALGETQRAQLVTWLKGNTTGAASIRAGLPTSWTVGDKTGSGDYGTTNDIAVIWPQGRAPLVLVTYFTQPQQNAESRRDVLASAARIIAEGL
Procedure: (§1) Ki values of inhibition of purified class A, C and D enzymes were determined spectrophotometrically using nitrocefin as reporter substratre. Purified enzymes were mixed with various concentrations of inhibitors in reaction buffer and incubated for 10 min at room temperature. Nitrocefin was added and substrate cleavage profiles were recorded at 490 nm every 10 sec for 10 min.

[19] = target: OXA-48 (Klebsiella pneumoniae, UniProt Q6XEC0); assay: as above; assay type: biochemical
Chain of OXA-48 (Q6XEC0 23-265 limits assumed): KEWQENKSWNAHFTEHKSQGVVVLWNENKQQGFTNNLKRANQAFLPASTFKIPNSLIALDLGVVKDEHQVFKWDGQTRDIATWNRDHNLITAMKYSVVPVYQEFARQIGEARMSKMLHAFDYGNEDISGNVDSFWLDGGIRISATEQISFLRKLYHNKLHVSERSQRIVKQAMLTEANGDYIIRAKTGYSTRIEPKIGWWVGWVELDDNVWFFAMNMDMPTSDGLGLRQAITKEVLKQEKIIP
Procedure: as §1

[20] = target: KPC-2 (Klebsiella pneumoniae, UniProt Q9F663); assay: as above; assay type: biochemical
Chain of KPC-2 (Q9F663 25-293 limits assumed): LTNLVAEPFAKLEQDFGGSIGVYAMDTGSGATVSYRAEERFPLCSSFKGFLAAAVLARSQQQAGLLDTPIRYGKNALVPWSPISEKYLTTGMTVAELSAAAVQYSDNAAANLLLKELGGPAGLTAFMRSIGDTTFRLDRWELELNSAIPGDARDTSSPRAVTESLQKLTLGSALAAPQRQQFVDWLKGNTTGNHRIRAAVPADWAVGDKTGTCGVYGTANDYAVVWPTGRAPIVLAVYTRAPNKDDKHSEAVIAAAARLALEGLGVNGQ
Procedure: as §1

[21] = tested on: KP1005 (CTX-M-14); assay: Tigemonam potentiation (MPC@4); assay type: cell-based; details: BLI concentration inhibiting growth with 4 μg/mL tigemonam; class A
[22] = tested on: KP1007 (OXA-10); assay: Aztreonam potentiation (MPC@4); assay type: cell-based; details: BLI concentration inhibiting growth with 4 μg/mL aztreonam; class D
[23] = tested on: KP1005 (CTX-M-14)
[24] = tested on: KP1010 (SHV-12); assay: Tigemonam MIC of test strain
[25] = tested on: ec302 (TEM-10); assay: Tigemonam MIC of test strain
[26] = tested on: KP1007 (OXA-10); assay: Tigemonam MIC of test strain; details: strain KP1007, OXA-10, class D
[27] = tested on: ECL1002 (class C); details: strain ECL1002, class C
[28] = tested on: EC1010 (CMY-6); assay: Tigemonam MIC of test strain; details: strain EC1010, CMY-6, class C
[29] = tested on: ec308 (SHV-5); assay: Aztreonam MIC of test strain; assay type: cell-based; details: read-out: Aztreonam MIC
[30] = tested on: ECL1002 (class C); assay: Aztreonam MIC of test strain; assay type: cell-based; details: read-out: Aztreonam MIC
[31] = target: P99 /AmpC of ECL (Enterobacter cloacae, UniProt P05364); assay: biochemical; details: purified enzyme, nitrocefin reporter substrate, 10 min preincubation; read-out: Ki (P99 /AmpC of ECL, NCF)
Chain of P99 /AmpC of ECL (P05364 21-381): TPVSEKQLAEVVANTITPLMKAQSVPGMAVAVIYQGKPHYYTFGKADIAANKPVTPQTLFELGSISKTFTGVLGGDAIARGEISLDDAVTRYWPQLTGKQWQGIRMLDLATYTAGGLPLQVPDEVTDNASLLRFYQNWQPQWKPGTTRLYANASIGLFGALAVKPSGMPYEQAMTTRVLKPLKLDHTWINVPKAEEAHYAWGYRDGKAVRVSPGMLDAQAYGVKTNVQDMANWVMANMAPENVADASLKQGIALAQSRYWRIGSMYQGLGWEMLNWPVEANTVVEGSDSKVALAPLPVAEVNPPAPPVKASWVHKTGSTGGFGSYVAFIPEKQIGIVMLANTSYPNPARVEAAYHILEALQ

[32] = target: SHV-12 (Klebsiella pneumoniae, UniProt P0AD64, E235K/G234S/L31Q); assay: Inhibition of nitrocefin cleavage by purified enzyme; assay type: biochemical; details: nitrocefin reporter substrate, 10 min preincubation, read-out: Ki (SHV-12, NCF)
Chain of SHV-12 (P0AD64 22-286 L31Q/G234S/E235K): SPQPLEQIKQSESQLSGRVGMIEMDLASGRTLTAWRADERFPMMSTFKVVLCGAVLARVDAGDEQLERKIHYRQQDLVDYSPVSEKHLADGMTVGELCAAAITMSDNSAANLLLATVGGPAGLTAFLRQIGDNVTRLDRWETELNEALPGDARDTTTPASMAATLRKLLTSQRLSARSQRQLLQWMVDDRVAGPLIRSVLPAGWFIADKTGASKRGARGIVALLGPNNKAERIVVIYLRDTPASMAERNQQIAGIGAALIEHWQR
Procedure: as §1

[33] = purified enzyme, nitrocefin reporter substrate, 10 min preincubation, read-out: Ki (CMY-2, NCF)
[34] = BLI concentration inhibiting growth with 4 μg/mL aztreonam, class A
[35] = purified enzyme, nitrocefin reporter substrate, 10 min preincubation, read-out: Ki (OXA-48, NCF)
[36] = purified enzyme, nitrocefin reporter substrate, 10 min preincubation, read-out: Ki (KPC-2, NCF)

Compound	MPC4 OXA-10, KP1007 [1]	MPC4 CMY-6, EC1010 [2] [µg/mL]	AZT MPC4 SHV-5 ec308 [3] [µg/mL]	AZT MPC4 CTX-M-14 KP1005 [4] [µg/mL]	MPC4 SHV-5 ec308 [5]	AZT MPC4 CTX-M-15 KP1009 [6] [µg/mL]	MPC4 CTX-M-15 KP1009 [7] [µg/mL]	MPC4 ECL1002 [8] [µg/mL]	MPC4 TEM-10 ec302 [9] [µg/mL]	AZT MPC@4 CMY-6 EC1010 [10] [µg/mL]	MPC4 SHV-12 KP1010 [11]	Ki [12, 33] [nM]	AZT MPC@4 OXA-2, KPX1001 [13] [µg/mL]	AZT MPC4 TEM-10 ec302 [14] [µg/mL]	AZT MPC@4 ECL1002 [15] [µg/mL]	AZT MPC4 KPC-2 KP1004 [16] [µg/mL]	AZT MPC4 SHV-12 KP1010 [17, 34] [µg/mL]	Ki [18] [nM]	MPC4 CTX-M-14 KP1005 [21] [µg/mL]	AZT MPC@4 OXA-10, KP1007 [22] [µg/mL]	also measured
O=C(O)[C@H]1/C(=C/CO)O[C@@H]2CC(=O)N21 [Clavulanic Acid]	<=0.6 μg/mL	40	0.08	1.25	<=0.6 μg/mL	1.25	1.25	>40	2.5	40	<=0.6 μg/mL	> 100000	5	0.3	>40	>40	0.04	27	2.5	0.08	Ki [19, 35]: 18600 nM; Ki [20, 36]: 41200 nM
CC1(C)[C@H](NC(=O)/C(=N\OCC(=O)O)c2csc(N)n2)C(=O)N1OS(=O)(=O)O [Tigemonam]																					Tigemonam MIC [23]: 512 µg/mL; Tigemonam MIC [24]: 256 µg/mL; Tigemonam MIC [25]: >512 µg/mL; Tigemonam MIC [26]: >64 µg/mL; Tigemonam MIC [27]: 32 µg/mL; Tigemonam MIC [28]: 16 µg/mL
C[C@H]1[C@H](NC(=O)/C(=N\OC(C)(C)C(=O)O)c2csc(N)n2)C(=O)N1S(=O)(=O)O [Aztreonam]																					MIC [29]: 64 µg/mL; MIC [30]: 64 µg/mL
C[C@]1(Cn2ccnn2)[C@H](C(=O)O)N2C(=O)C[C@H]2S1(=O)=O [Tazobactam]	5 µg/mL	2.5	10	10	5 µg/mL	20	10	10	5	20	1.25 µg/mL		>40	5	>40	>40			10	5	Ki [12]: 710 nM; AZT MPC4 SHV-12 KP1010 [17]: 1.25 µg/mL; Ki [19]: 160 nM; Ki [20]: 1600 nM
O=C(Cc1cccs1)N[C@@H](Cn1cc(C(=O)O)nn1)B(O)O [Compound 1, (R)-1-(2-borono-2-(2-(thiophen-2-yl)acetamido)ethyl)-1H-1,2,3-triazole-4-carboxylic acid]	0.3 µg/mL	0.6	0.6	1.25	2.5 µg/mL	10	1.25	5	>40	20	0.3 µg/mL	60	40	>40	20	5	0.3	5	2.5	0.6	Ki [31]: 80 nM; Ki [19, 35]: 23300 nM; Ki [32]: 5 nM; Ki [20, 36]: 39 nM
